Reference: ChEMBL document CHEMBL5338760, “Ψ and χ Angle Constrains at the C-Terminus Trp Position of the Melanotropin Tetrapeptide Ac-His-d-Phe-Arg-Trp-NH2 Lead to Potent and Selective Agonists at hMC1R and hMC4R” (J Med Chem, 2023)
pEC50, pIC50: −log10 of the molar value.

How the values were obtained:
Melanocortin receptor 3 [1] = target: T1, Melanocortin receptor 3 (Homo sapiens, UniProt P41968); assay: Agonist activity at human MC3R stably overexpressing in HEK293 cells assessed as intracellular acumulation of cAMP level incubated for 30 mins measured by microbeta 2 microplate counter analysis; format: functional, cell-based; settings: for EC50: hek293; for pEC50: read-out: EC50
T1 sequence (P41968 whole entry): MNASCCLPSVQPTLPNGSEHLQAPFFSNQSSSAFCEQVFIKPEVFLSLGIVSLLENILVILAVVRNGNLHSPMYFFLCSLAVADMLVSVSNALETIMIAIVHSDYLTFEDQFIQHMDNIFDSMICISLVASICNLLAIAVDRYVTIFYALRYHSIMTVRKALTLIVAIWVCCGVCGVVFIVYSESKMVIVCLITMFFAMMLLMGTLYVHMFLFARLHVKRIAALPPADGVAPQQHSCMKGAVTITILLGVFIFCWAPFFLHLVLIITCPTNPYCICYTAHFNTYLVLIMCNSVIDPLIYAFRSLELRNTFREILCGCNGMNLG

Melanocortin receptor 4 [2] = target: T2, Melanocortin receptor 4 (Homo sapiens, UniProt P32245); assay: Displacement of [I125] NDP-alpha-MSH from human MC4R stably overexpressing in HEK293 cells in presence of [I125] labeled NDP-alpha-MSH treated at 10 uM for 40 mins measured by microbeta 2 microplate counter analysis; format: cell-based
T2 sequence (P32245 whole entry): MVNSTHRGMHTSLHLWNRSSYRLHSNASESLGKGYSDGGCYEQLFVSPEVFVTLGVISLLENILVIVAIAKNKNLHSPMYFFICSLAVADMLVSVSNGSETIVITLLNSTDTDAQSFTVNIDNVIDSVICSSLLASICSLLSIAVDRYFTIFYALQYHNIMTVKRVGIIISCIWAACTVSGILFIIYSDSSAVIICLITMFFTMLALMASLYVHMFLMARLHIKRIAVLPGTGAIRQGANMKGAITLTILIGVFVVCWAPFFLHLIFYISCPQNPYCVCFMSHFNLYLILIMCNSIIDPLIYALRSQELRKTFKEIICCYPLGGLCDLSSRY

Melanocortin receptor 5 [3] = target: T3, Melanocortin receptor 5 (Homo sapiens, UniProt P33032); assay: Agonist activity at human MC5R stably overexpressing in HEK293 cells assessed as intracellular acumulation of cAMP level incubated for 30 mins measured by microbeta 2 microplate counter analysis; format: functional, cell-based; settings: for EC50: hek293; for pEC50: read-out: EC50
T3 sequence (P33032 whole entry): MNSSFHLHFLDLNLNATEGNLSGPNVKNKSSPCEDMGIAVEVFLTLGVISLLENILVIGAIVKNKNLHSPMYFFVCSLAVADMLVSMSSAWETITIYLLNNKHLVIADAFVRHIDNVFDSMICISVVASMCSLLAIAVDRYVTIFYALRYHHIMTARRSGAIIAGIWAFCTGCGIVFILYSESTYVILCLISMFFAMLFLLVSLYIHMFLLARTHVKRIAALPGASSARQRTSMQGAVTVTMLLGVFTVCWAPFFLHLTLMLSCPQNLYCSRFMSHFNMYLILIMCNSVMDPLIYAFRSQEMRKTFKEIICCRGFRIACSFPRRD

Melanocortin receptor 3 [4] = target: T1, Melanocortin receptor 3; assay: Displacement of [I125] NDP-alpha-MSH from human MC3R stably overexpressing in HEK293 cells in presence of [I125] labeled NDP-alpha-MSH treated at 10 uM for 40 mins measured by microbeta 2 microplate counter analysis; format: cell-based
[5] = target: T4, Melanocyte-stimulating hormone receptor (Homo sapiens, UniProt Q01726); assay: Agonist activity at human MC1R stably overexpressing in HEK293 cells assessed as intracellular acumulation of cAMP level incubated for 30 mins measured by microbeta 2 microplate counter analysis; format: functional, cell-based; settings: for EC50: hek293; for pEC50: read-out: EC50
Target sequence in this assay (Q01726 whole entry): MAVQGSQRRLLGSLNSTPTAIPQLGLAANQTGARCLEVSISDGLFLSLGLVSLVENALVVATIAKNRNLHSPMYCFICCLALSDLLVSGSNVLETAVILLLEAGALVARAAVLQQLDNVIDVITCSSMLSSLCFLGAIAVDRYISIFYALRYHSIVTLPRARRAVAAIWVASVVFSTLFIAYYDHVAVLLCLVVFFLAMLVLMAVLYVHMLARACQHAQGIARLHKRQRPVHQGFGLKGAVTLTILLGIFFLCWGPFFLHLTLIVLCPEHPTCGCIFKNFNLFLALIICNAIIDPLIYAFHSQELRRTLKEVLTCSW

[6] = target: T4, Melanocyte-stimulating hormone receptor; assay: Displacement of [I125] NDP-alpha-MSH from human MC1R stably overexpressing in HEK293 cells in presence of [I125] labeled NDP-alpha-MSH treated at 10 uM for 40 mins measured by microbeta 2 microplate counter analysis; format: cell-based
Target sequence in this assay (Q01726 whole entry): as above

Melanocortin receptor 4 [7] = target: T2, Melanocortin receptor 4; assay: Agonist activity at human MC4R stably overexpressing in HEK293 cells assessed as intracellular acumulation of cAMP level incubated for 30 mins measured by microbeta 2 microplate counter analysis; format: functional, cell-based; settings: for EC50: hek293; for pEC50: read-out: EC50
Melanocortin receptor 5 [8] = target: T3, Melanocortin receptor 5; assay: Displacement of [I125] NDP-alpha-MSH from human MC5R stably overexpressing in HEK293 cells in presence of [I125] labeled NDP-alpha-MSH treated at 10 uM for 40 mins measured by microbeta 2 microplate counter analysis; format: cell-based
Melanocortin receptor 3 [9] = target: T1, Melanocortin receptor 3; assay: Displacement of [I125] NDP-alpha-MSH from human MC3R stably overexpressing in HEK293 cells in presence of [I125] labeled NDP-alpha-MSH treated for 40 mins measured by microbeta 2 microplate counter analysis; format: cell-based
[10] = target: T4, Melanocyte-stimulating hormone receptor; assay: Displacement of [I125] NDP-alpha-MSH from human MC1R stably overexpressing in HEK293 cells in presence of [I125] labeled NDP-alpha-MSH treated for 40 mins measured by microbeta 2 microplate counter analysis; format: cell-based
Target sequence in this assay (Q01726 whole entry): as above

Melanocortin receptor 5 [11] = target: T3, Melanocortin receptor 5; assay: Displacement of [I125] NDP-alpha-MSH from human MC5R stably overexpressing in HEK293 cells in presence of [I125] labeled NDP-alpha-MSH treated for 40 mins measured by microbeta 2 microplate counter analysis; format: cell-based
[12] = target: T4, Melanocyte-stimulating hormone receptor; assay: Agonist activity at human MC1R stably overexpressing in HEK293 cells assessed as intracellular acumulation of cAMP level incubated at 10 uM for 30 mins measured by microbeta 2 microplate counter analysis relative to MT-II; format: functional, cell-based; settings: filed as agonist
Target sequence in this assay (Q01726 whole entry, looked up): as the sequence (Q01726 whole entry) above

[13] = target: T4, Melanocyte-stimulating hormone receptor; assay: Displacement of [I125] NDP-alpha-MSH from human MC1R stably overexpressing in HEK293 cells in presence of [I125] labeled NDP-alpha-MSH treated at 10 uM for 40 mins measured by microbeta 2 microplate counter analysis relative to control; format: cell-based
Target sequence in this assay (Q01726 whole entry, looked up): as the sequence (Q01726 whole entry) above

Melanocortin receptor 4 [14] = target: T2, Melanocortin receptor 4; assay: Displacement of [I125] NDP-alpha-MSH from human MC4R stably overexpressing in HEK293 cells in presence of [I125] labeled NDP-alpha-MSH treated for 40 mins measured by microbeta 2 microplate counter analysis; format: cell-based
Melanocortin receptor 3 [15] = target: T1, Melanocortin receptor 3; assay: Displacement of [I125] NDP-alpha-MSH from human MC3R stably overexpressing in HEK293 cells in presence of [I125] labeled NDP-alpha-MSH treated at 10 uM for 40 mins measured by microbeta 2 microplate counter analysis relative to control; format: cell-based; settings: filed as agonist
Melanocortin receptor 5 [16] = target: T3, Melanocortin receptor 5; assay: Displacement of [I125] NDP-alpha-MSH from human MC5R stably overexpressing in HEK293 cells in presence of [I125] labeled NDP-alpha-MSH treated at 10 uM for 40 mins measured by microbeta 2 microplate counter analysis relative to control; format: cell-based
Melanocortin receptor 3 [17] = target: T1, Melanocortin receptor 3; assay: Agonist activity at human MC3R stably overexpressing in HEK293 cells assessed as intracellular acumulation of cAMP level incubated at 10 uM for 30 mins measured by microbeta 2 microplate counter analysis relative to MT-II; format: functional, cell-based; settings: filed as agonist
Melanocortin receptor 5 [18] = target: T3, Melanocortin receptor 5; assay: Agonist activity at human MC5R stably overexpressing in HEK293 cells assessed as intracellular acumulation of cAMP level incubated at 10 uM for 30 mins measured by microbeta 2 microplate counter analysis relative to MT-II; format: functional, cell-based; settings: filed as agonist

EC50 (Melanocortin receptor 3 [1])	IC50 (Melanocortin receptor 4 [2])	EC50 (Melanocortin receptor 5 [3])	IC50 (Melanocortin receptor 3 [4])	EC50 [5]	IC50 [6]	EC50 (Melanocortin receptor 4 [7])	IC50 (Melanocortin receptor 5 [8])	pIC50 (Melanocortin receptor 3 [9])	pEC50 [5]	pEC50 (Melanocortin receptor 4 [7])	pIC50 [10]	pIC50 (Melanocortin receptor 5 [11])	Emax [12] [%]	pEC50 (Melanocortin receptor 3 [1])	SMILES	other results
Not Active	Not Active	Not Active	Not Active	Not Active	Not Active	Not Active	Not Active	–	–	–	–	–	–	–	CCCC[C@H](NC(=O)[C@@H](Cc1ccccc1)NC(=O)[C@H](Cc1c[nH]cn1)NC(C)=O)C(=O)N[C@H]1Cc2ccccc2CNC1=O	–
Not Active	Not Active	Not Active	Not Active	Not Active	Not Active	Not Active	Not Active	–	–	–	–	–	–	–	CCCC[C@H](NC(=O)[C@@H](Cc1ccccc1)NC(=O)[C@H](Cc1c[nH]cn1)NC(C)=O)C(=O)N[C@H]1Cn2nncc2CNC1=O	–
Not Active	–	Not Active	–	–	–	–	–	< 6.00	7.43	8.39	7.09	7.40	100	–	CC(=O)N[C@@H](Cc1c[nH]cn1)C(=O)N[C@H](Cc1ccc(C(F)(F)F)cc1)C(=O)N[C@@H](CCCNC(=N)N)C(=O)N[C@H]1Cc2c([nH]c3ccccc23)CNC1=O	Activity [13]: 35%; pIC50 (Melanocortin receptor 4 [14]): 8.60
Not Active	Not Active	Not Active	Not Active	Not Active	Not Active	Not Active	Not Active	–	–	–	–	–	–	–	CC(=O)N[C@@H](Cc1c[nH]cn1)C(=O)N[C@H](Cc1ccccc1)C(=O)N[C@@H](CCCNC(=N)N)C(=O)N[C@H]1Cc2ccccc2CNC1=O	–
–	Not Active	Not Active	Not Active	–	Not Active	–	Not Active	–	< 6.00	< 6.00	–	–	–	< 6.00	CCCC[C@H](NC(=O)[C@@H](Cc1ccccc1)NC(=O)[C@H](Cc1c[nH]cn1)NC(C)=O)C(=O)N[C@H]1Cc2c([nH]c3ccccc23)CNC1=O	–
–	Not Active	Not Active	Not Active	–	–	Not Active	–	–	6.87	–	8.02	< 6.00	96	< 6.00	CC(=O)N[C@@H](Cc1c[nH]cn1)C(=O)N[C@H](Cc1ccccc1)C(=O)N[C@@H](CCCNC(=N)N)C(=O)N[C@H]1Cn2nncc2CNC1=O	Activity [13]: 21%
–	–	–	–	–	–	–	–	8.70	9.00	8.70	9.00	8.40	–	–	CCCC[C@H](NC(C)=N)C(=O)N[C@@H]1NCCCC[C@@H](C(N)=O)NC(=O)[C@H](Cc2c[nH]c3ccccc23)NC(=O)[C@H](CCCNC(=N)N)NC(=O)[C@H](Cc2ccccc2)NC(=O)[C@H](Cc2cnc[nH]2)NC1=O	Activity (Melanocortin receptor 3 [15]): 100%; pEC50 (Melanocortin receptor 5 [3]): 8.22; Activity (Melanocortin receptor 5 [16]; filed as agonist): 100%; Activity ([13]; filed as agonist): 100%
–	–	–	–	–	–	–	–	–	–	–	–	–	100	–	CC(=O)N[C@@H](Cc1cnc[nH]1)C(=O)N[C@H](Cc1ccccc1)C(=O)N[C@@H](CCCNC(=N)N)C(=O)N[C@@H](Cc1c[nH]c2ccccc12)C(N)=O	Emax (Melanocortin receptor 3 [17]): 100%; Activity (Melanocortin receptor 5 [16]; filed as agonist): 100%; Emax (Melanocortin receptor 5 [18]): 63%
–	–	–	–	–	–	–	–	6.78	7.95	6.77	7.47	< 6.00	100	6.78	CC(=O)N[C@@H](Cc1c[nH]cn1)C(=O)N[C@H](Cc1ccccc1)C(=O)N[C@@H](CCCNC(=N)N)C(=O)N[C@H]1Cc2c([nH]c3ccccc23)CNC1=O	Activity (Melanocortin receptor 3 [15]): 61%; Emax (Melanocortin receptor 3 [17]): 66%; pEC50 (Melanocortin receptor 5 [3]): 6.78; Activity (Melanocortin receptor 5 [16]): 39%; Emax (Melanocortin receptor 5 [18]): 61%; Activity ([13]; filed as agonist): 83%; pIC50 (Melanocortin receptor 4 [14]): 6.78
